# Where two headings read alike, the source gives them in different places.
# What was measured:
# Assay type in all cases: cell-based
# [1] = system: Staphylococcus aureus (Smith); test: Anti-microbial test, MIC by broth dilution method, Staphylococcus aureus (Smith); details: for MIC: Staphylococcus aureus, read-out: MIC SA (Smith)
# Protocol: (§1) Staphylococcus aureus (Smith), and Staphylococcus aureus, Methicillin Resistant (ATCC 33591), In Vitro Bacteria
# (§2) Minimum inhibitory concentration (MIC) of sample on Staphylococcus aureus (Smith) and Staphylococcus aureus, Methicillin Resistant (ATCC 33591) was determined by the broth dilution method [Edwards J. R. et al. In vitro antibacterial activity of SM-7338, a carbapenem antibiotic with stability to dehydropeptidase I. Antimicrobial Agents Chemotherapy. 33: pp. 215-222, 1989]. The test substance was dissolved (generally 100% DMSO) and serially diluted in solvent to desired stock concentrations. For each concentration tested, a 0.01 ml aliquot (1% DMSO final concentration) was added to a 48-well plate after which 0.99 ml of Mueller-Hinton Broth (DIFCO, USA.) with 1-5×10^5 CFU/ml of Staphylococcus aureus (Smith) or Staphylococcus aureus, Methicillin Resistant (ATCC 33591) was added. Thus, final maximal concentration of DMSO was 1% and the initial test substance concentration was 100 μg/ml or 30 μM. The plates were incubated at 37° C. for 20 hours and then visually examined and scored positive (+) for inhibition of growth or turbidity or negative (−) for no effect upon growth or turbidity. Vehicle-control and active reference agents were used as blank and positive controls, respectively. Each concentration was evaluated in duplicate.
# [2] = system: Staphylococcus aureus, Methicillin Resistant (ATCC 33591); test: Anti-microbial test, MIC by broth dilution method, methicillin resistant Staphylococcus aureus; details: for MIC: Staphylococcus aureus, ATCC 33591 / MRSA, read-out: MIC MRSA
# Protocol: as §1, §2
# [3] = system: Streptococcus pneumoniae (ATCC 6301); test: Anti-microbial test, MIC by broth dilution method, Streptococcus pneumoniae; details: for MIC: Streptococcus pneumoniae, read-out: MIC SP
# Protocol: (§3) Streptococcus pneumoniae (ATCC 6301) and Streptococcus pneumoniae (Erythromycin and Ampicillin Res. Clin. Isol.), In Vitro Bacteria
# (§4) Minimum inhibitory concentration (MIC) of sample on Streptococcus pneumoniae and Streptococcus pneumoniae (Erythromycin and Ampicillin Res. Clin. Isol.) was determined by the broth dilution method [Edwards J. R. et al. In vitro antibacterial activity of SM-7338, a carbapenem antibiotic with stability to dehydropeptidase I. Antimicrobial Agents Chemotherapy. 33: pp. 215-222, 1989.]. The test substance was dissolved (generally 100% DMSO) and serially diluted in solvent to desired stock concentrations. For each concentration tested, a 0.01 ml aliquot (1% DMSO final concentration) was added to a 48-well plate after which 0.99 ml of Tryptic Soy Broth (DIFCO, U.S.A.) containing 7% fetal bovine serum with 1-5×10^5 CFU/ml of Streptococcus pneumoniae (ATCC 6301) or Streptococcus pneumoniae (Erythromycin and Ampicillin Res. Clin. Isol.) was added. Thus, final maximal concentration of DMSO was 1% and the initial test substance concentration was 100 μg/ml or 30 μM. The plates were incubated at 37° C. for 20 hours and then visually examined and scored positive (+) for inhibition of growth or turbidity or negative (−) for no effect upon growth or turbidity. Vehicle-control and active reference agents were used as blank and positive controls, respectively. Each concentration was evaluated in duplicate.
# [4] = system: Streptococcus pneumoniae (Erythromycin and Ampicillin Res. Clin. Isol.); test: Anti-microbial test, MIC by broth dilution method, resistant Streptococcus pneumoniae; details: for MIC: Streptococcus pneumoniae, read-out: MIC SP (EM & AM Res.)
# Protocol: as §3, §4
# [5] = Mueller-Hinton Broth, 37° C., 20 hours, 1% DMSO, visual growth/turbidity
# [6] = ATCC6301, Tryptic Soy Broth with 7% fetal bovine serum, 37° C., 20 hours, 1% DMSO
# [7] = clinical isolates, Tryptic Soy Broth with 7% fetal bovine serum, 37° C., 20 hours, 1% DMSO
Compound,MIC ([1]; 20 h),MIC ([2]; 20 h),"MIC ([3]; ATCC6301, 20 h)","MIC [1, 5]","MIC [2, 5]","MIC [3, 6]","MIC [4, 7]",other results
CC(C)=CCC/C(C)=C/Cc1c(O)ccc2cc(-c3cc(O)cc(O)c3CC=C(C)C)oc12 [P3-4],3 µg/mL,100 µg/mL,30 µg/mL,,,,,MIC ([4]; 20 h): 10 µg/mL
CC1=CC(c2c(O)cc(-c3cc4ccc(O)cc4o3)cc2O)C(C(=O)c2ccc(O)cc2O)[C@H](c2ccc(O)cc2O)C1 (stereo partly drawn) [P2-1],3 µg/mL,> 100 µg/mL,100 µg/mL,,,,,MIC ([4]; 20 h): 30 µg/mL
"CC(C)=CCc1c(O)ccc(C(=O)C2C(c3c(O)cc(O)c4c(=O)c(CC=C(C)C)c(-c5ccc(O)cc5O)oc34)C=C(C)CC2c2ccc(O)cc2O)c1O (stereo not drawn) [P3-2, 8-[6-[2,4-dihydroxy-3-(3-methyl-but-2-enyl)-benzoyl]-5-(2,4-dihydroxy-phenyl)-3-methyl-cyclohex-2-enyl]-2-(2,4-dihydroxy-phenyl)-5,7-dihydroxy-3-(3-methyl-but-2-enyl)-chromen-4-one]",,,,0.3 µg/mL,0.3 µg/mL,10 µg/mL,10 µg/mL,
Gentamicin [reference compound],,,,,,,,"MIC SA (Smith) [1, 5]: 0.1 µg/mL; MIC MRSA [2, 5]: 1 µg/mL; MIC on MRSA relative to MIC on SA (Smith) ([2]; ratio MRSA / SA (Smith)): 10 times; MIC SP ([3]; Tryptic Soy Broth with 7% fetal bovine serum, 37° C., 20 hours, 1% DMSO): 100 µg/mL; MIC SP (EM & AM Res.) [4, 7]: 100 µg/mL"
CC(C)=CCCC1=CC(c2c(O)cc3c(c2O)C(=O)CC(c2ccc(O)cc2O)O3)C(C(=O)c2ccc(O)cc2O)C(c2ccc(O)cc2O)C1 (stereo not drawn) [P3-1],,,,1 µg/mL,3 µg/mL,30 µg/mL,10 µg/mL,
"CC(C)=CCc1c(-c2ccc(O)cc2O)oc2c3c(cc(O)c2c1=O)OC(C)(C)C=C3 [P3-3, 2-(2,4-dihydroxy-phenyl)-5-hydroxy-8,8-dimethyl-3-(3-methyl-but-2-enyl)-8H-pyrano[2,3-f]chromen-4-one]",,,,10 µg/mL,100 µg/mL,100 µg/mL,30 µg/mL,
"CC1(C)S[C@@H]2[C@H](NC(=O)[C@H](N)c3ccccc3)C(=O)N2[C@H]1C(=O)O [Ampicillin, reference compound]",,,,0.1 µg/mL,30 µg/mL,0.01 µg/mL,3 µg/mL,
CC(C)=CCc1c(-c2ccc(O)cc2O)oc2c(C3C=C(C)C[C@@H](c4ccc(O)cc4O)C3C(=O)c3ccc(O)cc3O)c(O)cc(O)c2c1=O (stereo partly drawn) [P2-2],3 µg/mL,> 100 µg/mL,30 µg/mL,,,,30 µg/mL,

# Reference: patent US8071142B2, “Anti-bacterial use of extract from Morus australis poir. and compound kuwanon h” (Medical and Pharmaceutical Industry Technology and …, priority 2008, dated 2011)
